The values below come from patent publication US7112574B2, “C2,8-disubstituted adenosine derivatives and their different uses” (priority 2001, dated 2006).

One data set concerns the target T1, human A3 receptor (Homo sapiens, UniProt P0DMS8).
T1 construct: expressed in transfected cells; host or cells: HEK 293
T1 sequence (P0DMS8 1-318): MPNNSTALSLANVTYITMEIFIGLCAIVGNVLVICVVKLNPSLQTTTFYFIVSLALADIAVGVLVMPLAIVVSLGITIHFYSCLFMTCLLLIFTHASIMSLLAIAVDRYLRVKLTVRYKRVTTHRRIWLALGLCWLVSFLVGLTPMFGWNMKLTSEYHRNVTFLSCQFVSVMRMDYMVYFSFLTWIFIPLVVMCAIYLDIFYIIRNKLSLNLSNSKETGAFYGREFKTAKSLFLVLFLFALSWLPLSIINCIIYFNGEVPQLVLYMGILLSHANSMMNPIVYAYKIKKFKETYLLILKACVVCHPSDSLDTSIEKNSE
The data set is described as follows: Radioligand binding, displacement of [125I]AB-MECA from human A3 receptor expressed in HEK 293 cells. As for the experimental part: (§1) Incubations were carried out for 1 hr at 37° C. and were terminated by rapid filtration over Whatman GF/B filters, using a Brandell cell harvester (Brandell, Gaithersburg, Md.). Tubes were washed three times with 3 ml of buffer. Radioactivity was determined in a Beckman 5500B γ-counter. Nonspecific binding was determined in the presence of 10^−5 M R-PIA.
(§2) All compounds prepared were tested in radioligand binding assays to determine their affinities for the adenosine A1 receptor in rat brain cortex, the A2A receptor in rat striatum and the human A3 receptor as expressed in HEK 293 cells (Table 2, hereinafter). The Ki values were computed from the displacement curves obtained by nonlinear regression of the competition curves with the software package Prism (Graph Pad, San Diego, Calif.)
(§3) For the adenosine A1 receptor, the tritiated antagonist, [^3H]-1,3-dipropyl-8-cyclopentylxanthine ([^3H]DPCPX), and for the adenosine A2A receptor, the tritiated antagonist [^3H]ZM 241385 were used. Since radiolabeled antagonists are not commercially available for the adenosine A3 receptor, [125I]AB-MECA, an A3 receptor agonist, was used. Displacement experiments were performed in the absence of GTP.

In data set [1] the target is human adenosine A2A receptors (Homo sapiens, UniProt P29274). The procedure:
CHO cells expressing the human adenosine A2A receptors were grown overnight as a monolayer in 24 wells tissue culture plates (400 μl/well; 2×10^5 cells/well). cAMP generation was performed in Dulbecco's Modified Eagles Medium (DMEM)/N-2-hydroxyethylpiperazin-N′-2-ethansulfonic acid HEPES) buffer (0.60 g HEPES/50 ml DMEM pH 7.4). To each well, washed three times with DMEM/HEPES buffer (250 μl), 100 μl DMEM/HEPES buffer, 100 μl adenosine deaminase (final concentration 5 IU/ml) and 100 μl of a mixture of rolipram and cilostamide (final concentration 50 μM each) were added. After incubation for 40 minutes at 37° C., 100 μL agonist was added. After 15 minutes at 37° C., the reaction was terminated by removing the medium and adding 200 μl 0.1 M HCl. Wells were stored at −20° C. until assay.
The amounts of cAMP were determined after a protocol with cAMP binding protein^12 with the following minor modifications. As a buffer was used 150 mM K2HPO4/10 mM EDTA/0.2% Bovine Serum Albumine (BSA) at pH 7.5. Samples (20 μl+30 μl 0.1 M HCl) were incubated for at least 2.5 hours at 0° C. before filtration over Whatman GF/B filters. […] Filters were counted in Packard Emulsifier Safe scintillation fluid (3.5 ml) after 24 hours of extraction.
All compounds prepared were also tested in a functional assay.

A further data set deals with adenosine A2A receptor (Rattus norvegicus, UniProt P30543). Kind of data set: biochemical. The conditions noted are these: for % displacement at 10^-5 M, A2A: [3H]ZM241385, rat striatal membranes, 10 μM, n=2, mean value. The procedure: as §1, §2, §3
The next data set addresses T2, adenosine A1 receptor (Rattus norvegicus, UniProt P25099).
T2 sequence (P25099 1-326): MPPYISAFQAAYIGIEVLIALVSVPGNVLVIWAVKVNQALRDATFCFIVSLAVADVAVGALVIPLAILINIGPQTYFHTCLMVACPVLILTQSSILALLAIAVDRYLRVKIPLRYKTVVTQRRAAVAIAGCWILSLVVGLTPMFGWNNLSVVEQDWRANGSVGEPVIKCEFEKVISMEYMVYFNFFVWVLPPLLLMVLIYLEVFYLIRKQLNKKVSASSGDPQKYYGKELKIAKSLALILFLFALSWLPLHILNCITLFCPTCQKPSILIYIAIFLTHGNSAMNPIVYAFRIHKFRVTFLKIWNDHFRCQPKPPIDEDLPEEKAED
The data set is described as follows: biochemical. The conditions noted are these: for inhibition at 10 µM: read-out: % displacement at 10^-5 M, A1. As for the experimental part:
as §1, §2, §3

`CCCC/C=C/c1nc(N)c2nc(NCCC)n([C@@H]3O[C@H](CO)[C@@H](O)[C@H]3O)c2n1` [Compound 19, 2-((E)-1-hexenyl)-8-propylaminoadenosine] had a melting point of 170 to 172 °C. This compound also came in with a Ki at human A3 receptor of 14.3 ± 2.16 µM. Also, in data set [1], the “% cAMP production hA2A” value is on record as 73% (70–76). Moreover, the affinity on adenosine A2A receptor, expressed as Ki, was 678 ± 25 nM. Besides, the A3/A2A at adenosine A2A receptor (ratio of Ki A3 (human) to Ki A2A (rat)) worked out at 21.1. Further, the inhibition at 10 µM at adenosine A1 receptor stood at 49.5%.
Consider `CCNc1nc2c(N)nc(I)nc2n1[C@@H]1O[C@H](CO)[C@@H](O)[C@H]1O` [Compound 8, 2-iodo-8-ethylaminoadenosine], for which the melting point is 205 to 207 °C. This compound also registered an inhibition constant Ki on human A3 receptor of 5.11 ± 0.89 µM. In addition, in data set [1], the “% cAMP production hA2A” value was 77% (76–78). In addition, on adenosine A2A receptor, the “% displacement at 10^-5 M, A2A” value is 40.6%. Further, the inhibition at 10 µM on adenosine A1 receptor came out at 35.2%.
In the case of `CCCCC#Cc1nc(N)c2nc(NCc3ccccc3)n([C@@H]3O[C@H](CO)[C@@H](O)[C@H]3O)c2n1` [Compound 16, 2-(1-hexynyl)-8-Benzylaminoadenosine], the melting point lay within 141 to 143 °C. Besides, on human A3 receptor, the affinity corresponds to a Ki of 7.97 ± 0.61 µM. Further, in data set [1], the “% cAMP production hA2A” value was 83% (61–106). Also, in data set [1] (cAMP production compared to reference agonist CGS 21680, words), the “agonist behaviour (intrinsic activity) at the adenosine A2A receptor” value is recorded as “full agonists”. Moreover, the “% displacement at 10^-5 M, A2A” value at adenosine A2A receptor turned out to be 35.4%. Further, the inhibition constant Ki on adenosine A1 receptor is 756 ± 483 nM.
`CNc1nc2c(N)nc(I)nc2n1[C@@H]1O[C@H](CO)[C@@H](O)[C@H]1O` [Compound 7, 2-Iodo-8-methylaminoadenosine] gave a melting point of 162 to 164 °C. Also, the affinity on human A3 receptor corresponds to a Ki of 7.31 ± 0.44 µM. For the same compound, the “% cAMP production hA2A” value in data set [1] is listed as 23% (20–25). Also, at adenosine A2A receptor, the “% displacement at 10^-5 M, A2A” value was found to be 43.3%. Besides, the inhibition at 10 µM at adenosine A1 receptor was 35.2%.
